US6391304B1, “Peptides derived from the ENV gene of the feline immunodeficiency virus and their applications” (Centre National de la Recherche Scientifique, priority 1997, dated 2002)
Where “and” joins values, the source holds several entries; their conditions need not be identical. Identical values can stand only once. Entries after “also recorded” stand apart in the source; their conditions may differ.

Key:
[1] = test system: immobilized peptide (SU2, SU5, TM2 or TM3-19); assay: ELISA anti-peptide titre during the immunization of cats; assay type: in vivo; conditions: individual cats immunized with KLH-coupled peptide; absorbance at 405 nm greater than 0.1
Protocol: (§1) Groups of four cats 4½ months old are immunized subcutaneously with 120 μg of FIV peptide (approximately 250 μg of peptide coupled to KLH (keyhole limpet haemocyanin)), emulsified in complete Freund's adjuvant.
(§2) Four repeat immunizations are administered subcutaneously in an incomplete Freund's adjuvant, generally at intervals of 2-3 weeks, although the interval between the last 2 […] was 7 weeks.
(§3) The production on of antibodies is evaluated before the test by means of an ELISA using an immobilized peptide (SU2, SU5, TM2 or TM3-19) and immunoprecipitation. After the test, the seroconversion is monitored by an ELISA using immobilized envelope peptides and a recombinant FTV capsid protein.
(§4) The ELISA with the immobilized envelope peptides corresponding to the immunogenic domains SU2 and TM2 and with the immobilized recombinant p25 protein (FIV capsid protein) is carried out as described in Avraméas A. et al. (Res. Virol., 1993, 144, 209-218).
(§5) Microplates (Immunolon II, Dynatech) are coated with 0.5 μg/well for the peptides and with 0.1 μg/well for the p25 protein.
(§6) The tests are carried out in duplicate and the results are expressed as average values.
The anti-peptide titres before the test are expressed as the logarithm of the inverse of the last dilution of serum which gives an absorbance (at 405 nm) of greater than 0.1.

[2] = test system: SU2 envelope peptide; assay: Seroconversion ELISA after the virulence test, SU2 peptide; assay type: in vivo, cats; conditions: ELISA, seral dilution 1/25; individual cats
Protocol: (§7) The cats are subjected to a virulence test, one week after the final immunization, by means of an intraperitoneal inoculation of 10 CID50 of FIV Wo isolate, one CID50 corresponding to the dose capable of infecting 50% of the cats.
as §3, §4, §5, §6
(§8) After the test, the seroconversion against the envelope peptides and the p25 protein is evaluated at serum dilutions of 1/25 and 1/100, respectively.
(§9) The absorbance values (at 405 nm) are corrected by subtraction of the absorbance values obtained by binding with an immobilized control peptide.
(§10) The tests are normalized with reference to the binding of a mixture of serum from cats infected with FIV with a peptide representing the immunodominant domain of the FIV transmembrane glycoprotein (TM2) (Avraméas A. et al., Res. Virol., 1993, 144, 209-218).

[3] = test system: CD4+ T lymphocytes; assay: Counting of circulating CD4+ T lymphocytes by flow cytometry; assay type: in vivo, cats; conditions: acute infection with FIV Wo, FIG. 2
Protocol: Counting of the CD4^+ T lymphocytes is carried out at regular intervals before the test, on the day of the test and at regular intervals during the acute infection.
The CD4^+ T lymphocytes are counted by flow cytometry, using monoclonal antibodies (Clinisciences).
To evaluate the effect of the immunization on the pathology associated with a primary infection, circulating CD4^+ lymphocytes are counted before and after the test with the FIV Wo strain.

[4] = test system: FIV Petaluma strain; assay: Neutralization of infection of CrFK cells by sera of immunized cats; assay type: cell-based; conditions: CrFK cell line
Protocol: The detection of antibodies neutralizing the infection of the CrFKs with the FIV Petaluma strain is carried out as described previously (Richardson J. et al., J. Gen. Virol., 1996, 77, 759-771).
To evaluate the function of the antibodies, the feline sera directed against the SU2 peptide are tested for their neutralizing value with respect to the infection of CrFK cells with the FIV Petaluma strain.

[5] = test system: TM2 envelope peptide; assay: Seroconversion ELISA after the virulence test, TM2 peptide; assay type: in vivo, cats
Protocol: as §7, §3, §4, §5, §6, §8, §9, §10

[6] = test system: p25 recombinant FIV capsid protein; assay: Seroconversion ELISA after the virulence test, p25; assay type: in vivo, cats; conditions: ELISA, seral dilution 1/100; individual cats
Protocol: as §7, §3, §4, §5, §6, §8, §9, §10

[7] = test system: envelope glycoproteins of the Petaluma strain; assay: Immunoprecipitation of envelope glycoproteins by sera (metabolically labelled FL-4 cells); assay type: in vivo, FIV; conditions: lysates of chronically infected FL-4 cells; groups of four cats
Source text: The sera collected on the day of the test (at a dilution of 1/40) are used to immunoprecipitate the envelope glycoproteins derived from the metabolically labelled FL-4 cells and feline mononuclear cells (PBM cells) infected with the FIV Wo strain, as described in G. Pancino et al. (Virology, 1995, 206, 796-806).
The recognition of the envelope glycoproteins is estimated by immunoprecipitation of the biosynthetically labelled envelope glycoprotein with sera collected on the day of the test, as summarized in Table I.

[8] = test system: FIV Wo isolate; assay: Plasmatic viral load by competitive RT-PCR after the virulence test; assay type: in vivo, cats; conditions: after test with 10 CID50 of Wo isolate, relative to control cats, FIG. 3
Protocol: as §1, §2, §7
The plasma is filtered (0.45 μm) and the RNA not associated with cells is extracted directly from the filtered plasma using the Viral RNA kit (Qiagene) and eluted in 50 μl of water according to the manufacturer's instructions, and the RNA is then divided into aliquots and stored at −80° C.
A conserved region of the FIV gag gene is selected as a target sequence for the reverse transcription of the competitive RNA and the overlapping PCR amplification.
For the synthesis of the cDNA, 2.5 μl of viral RNA are mixed with 2.5 μl containing different numbers of copies of competitive RNA; typically, the various samples of competitive RNA are prepared using 5 semi-logarithmic dilutions, straddling the number of copies estimated in the biological sample.
The RNA is denatured at 65° C. for 5 minutes and immediately placed on ice. The reagents for the reverse transcription (15 μl) are added.
The final reaction mixtures contain 0.3 U/ml of random hexanucleotides (sequences of 6 randomly aligned nucleotides which make it possible theoretically to amplify any RNA fragment) (Pharmcia), 0.5 mM of dNTP, 10 mM of DTT, 1× of commercial buffer (Gibco BRL) and 100 U of Superscript II (Glbco BRL), in a volume of 20 μl.
The reactions are first carried out at 25° C. for 10 minutes to promote the hybridization of the primers, and then at 42° C. for 50 minutes. The reverse transcriptase is inactivated by incubation at 95° C. for 5 minutes.
The highly conserved sequences are selected as primers. The complementary DNA is amplified by overlapping PCR, using:
For the first amplification, the PCR reagents (80 μl) are added as a mixture with 20 μl of cDNA.
The DNA is denatured at 94° C. for 3 minutes, subjected to 28 cycles of amplification (94° C. 30 s/55° C. 30 s/72° C. 30 s) and to an elongation at 72° C. for 7 minutes.
For the overlapping amplification, 2 μl of the product of the first amplification is transferred into 98 μl of reaction mixture containing 200 μM of dNTP, 1.5 mM of MgCl2, 0.5 μM of each internal primer, 1× of commercial buffer (Gibco BRL) and 0.25 U of Taq polymerase (Gibco BRL).
The DNA is denatured at 94° C. for 3 minutes, subjected to 28 cycles of amplification (94° C. 30 s/52° C. 30 s/72° C. 30 s) and to an elongation at 72° C. for 7 minutes.
The amplification products (10 μl ) are subjected to electrophoresis on 2.75% agarose gel.
Digital images of the gels stained with ethidium bromide are obtained using the Appligene Imager and the densitometry analyses are carried out with the Image NIH software. The density of the competitive product is adjusted as a function of the difference between the length of the native sequence and that of the competitive sequence.
The logarithm of the ratio:density or competitive product/density of the native product, is plotted as a function of the logarithm of the number of copies of competitive RNA added to each reaction.
The best adjustment is determined by the least-squares method and the number of copies of native RNA corresponds to the intersection of the axis of the Xs (Piatak M. Jr. et al., Biotechniques, 1993, 14, 70-80).
The cumulative area under the curve (Dawson J., Drug Information J., 1994, 28, 723-732) is calculated from graphs illustrating the ratio: copies of viral RNA/ml of plasma/time, and compared with the Mann-Whitney test.

[9] = ELISA, seral dilution 1/25, individual cats

## SU5: peptide of the SU5 domain of the FIV surface envelope glycoprotein, SEQ ID NO: 3, used as immunogen (QVVKQPDYLVVPGEVMEYKPRR)
[1]
  Anti-peptide titre, 1st injection: 5.01 logarithm of the inverse of the last dilution of serum and 5.31 logarithm of the inverse of the last dilution of serum and 4.71 logarithm of the inverse of the last dilution of serum and >5.61 logarithm of the inverse of the last dilution of serum
  Anti-peptide titre, 2nd injection: 5.31 logarithm of the inverse of the last dilution of serum (3×) and 5.01 logarithm of the inverse of the last dilution of serum
  Anti-peptide titre, Day of the test: 4.71 logarithm of the inverse of the last dilution of serum and 5.01 logarithm of the inverse of the last dilution of serum (3×)
[2]
  Binding of the sera to SU2, 3 weeks after the virulence test: 0 optical density
  Binding of the sera to SU2, 4 weeks after the virulence test: 1.9 optical density and 0.5 optical density and 0 optical density (2×)
  Binding of the sera to SU2, 5 weeks after the virulence test: 2.4 optical density and 0.7 optical density and 0.1 optical density and 0 optical density
[3]
  number of CD4+ lymphocytes after the infection: gradual reduction
[4]
  neutralizing antibodies in sera of immunized cats: do not neutralize
[5]; [9]
  Binding of the sera to TM2, 3 weeks after the virulence test: 2.3 optical density and 0 optical density (2×) and 0.1 optical density
  Binding of the sera to TM2, 4 weeks after the virulence test: 2.9 optical density and 2.8 optical density and 2.4 optical density and 0 optical density
  Binding of the sera to TM2, 5 weeks after the virulence test: 3.0 optical density and 3.1 optical density and 2.8 optical density and 0 optical density
[5]; at 4 weeks after the test
  response against the TM2 peptide: developed a large response
[6]
  Binding of the sera to p25, 3 weeks after the virulence test: 0.1 optical density and 0 optical density (3×)
  Binding of the sera to p25, 4 weeks after the virulence test: 2.7 optical density and 1.0 optical density and 0.2 optical density and 0 optical density
  Binding of the sera to p25, 5 weeks after the virulence test: 2.9 optical density and 2.2 optical density and 0.8 optical density and 0 optical density
[7]
  cats whose sera immunoprecipitate the envelope glycoproteins of the Petaluma strain: all the cats
[8]
  course of the primary infection (viral RNA in plasma, viral dissemination): the acute infection of 3 cats followed kinetics similar to those of the control cats, while infection in one of the cats appears in a retarded manner; also recorded: do not modify the course of the infection
